The text below walks through data of patent publication US20240270744A1 (Hoffmann-La Roche Inc., priority 2021, published 2024).

Test [1] deals with human GABAA α5β2γ1 receptor (Homo sapiens (Human), UniProt P31644+Q8N1C3). The test is described as follows: Radioligand binding assay, competition for [3H]RO7239181, γ1-containing GABAA subtypes. The conditions noted are these: Table 1; [3H]RO7239181 displacement, membranes from HEK293F cells, mean of two determinations. As for the experimental part:
The affinity of compounds at GABAA γ1 subunit-containing receptors was measured by competition for [^3H]RO7239181 (67.3 Ci/mmol; Roche) binding to membranes from HEK293F cells (ThermoFisher R79007) expressing human (transiently transfected) receptors of composition α5β2γ1, α2β2γ1, α1β2γ1. For better protein expression of the α2 subunit-containing receptors, the 28 amino acid long signal peptide (Met1 to Ala28) of the human GABAA α2 subunit was substituted by the 31 amino acid long signal peptide (Met1 to Ser31) of human GABAA α5 subunit.
(§1) Harvested pellets from HEK293F cells expressing the different GABAA receptor subtypes were resuspended in Mannitol Buffer pH 7.2-7.4 (Mannitol 0.29 M, Triethylamine 10 mM, Acetic acid 10 mM, EDTA 1 mM plus protease inhibitors (20 tablets Complete, Roche Diagnostics Cat. No. 05 056 489 001 per liter)), washed two times and then resuspended at 1:10 to 1:15 dilution in the same buffer. Cell disruption was performed by stirring the suspension in a Parr vessel #4637 at 435 psi for 15 minutes, and then the suspensions were centrifuged at 1000×g for 15 minutes at 4° C. (Beckman Avanti J-HC: rotor JS-4.2). The supernatant (S1) was transferred in a 21 Schott flask and the pellet (P1) was resuspended with Mannitol Buffer up to 175 ml. The resuspended pellet was transferred into a 250 ml Corning centrifugal beaker and centrifuged at 1500×g for 10 minutes at 4° C. (Beckman Avanti J-HC: rotor JS-4.2). The supernatant (S1) was then transferred in the 21 Schott flask and the pellet was discarded. The supernatants (S1) were centrifuged in 500 ml Beckman polypropylene centrifugal beaker at 15′000×g for 30 minutes at 4° C. (Beckman Avanti J-20 XP; rotor JLA-10.500). The pellet (P2) was resuspended with Mannitol Buffer 1:1 and frozen at −80° C. The supernatant (S2) was centrifuged in 100 ml Beckman polypropylene centrifugal tubes at 48000×g for 50 minutes at 4° C. (Beckman Avanti J-20 XP; rotor JA-18). The supernatant (S3) was discarded and the pellet (P3) was resuspended with 1:1 Mannitol Buffer. The P2 and P3 protein concentration was determined with the BIORAD Standard assay method with bovine serum albumin as standard and measured on the NANO-Drop 1000. The membrane suspension was aliquots (500 μl per tube) and stored at −80° C. until required.
(§2) Membrane homogenates were resuspended and polytronised (Polytron PT1200E Kinematica AG) in Potassium Phosphate 10 mM, KCl 100 mM binding buffer at pH 7.4 to a final assay concentration determined with a previous experiment.
Radioligand binding assays were carried out in a volume of 200 μL (96-well plates) which contained 100 μL of cell membranes, [3H]RO7239181 at a concentration of 1.5 nM (α5β2γ1) or 20-30 nM (α1β2γ1, α2β2γ1) and the test compound in the range of [0.3-10000]=10^−9 M. Nonspecific binding was defined by 10×10^−6 (α5β2γ1) and 30×10^−6 M RO7239181 and typically represented less than 5% (α5β2γ1) and less than 20% (β1β2γ1, α2β2γ1) of the total binding. Assays were incubated to equilibrium for 1 hour at 4° C. and then, membranes were filtered onto unifilter (96-well white microplate with bonded GF/C filters preincubated 20-50 minutes in 0.3% Polyethylenimine) with a Filtermate 196 harvester (Packard BioScience) and washed 4 times with cold Potassium Phosphate 10 mM pH 7.4, KCl 100 mM binding buffer. After anhydrousing, filter-retained radioactivity was detected by liquid scintillation counting. Ki values were calculated using Excel-Fit (Microsoft) and are the means of two determinations.
Representative test results, obtained by the above described assay measuring binding affinity to HEK293 cells expressing human (h) receptors, are shown in the Table 1.

The target in test [2] is human GABAA α2β2γ1 receptor (Homo sapiens (Human), UniProt P47869+Q8N1C3). The test is described as above. To be noted: for LogSel: Log of the γ2/γ1 Ki ratio. The protocol: The affinity of compounds at GABAA γ1 subunit-containing receptors was measured by competition for [^3H]RO7239181 (67.3 Ci/mmol; Roche) binding to membranes from HEK293F cells (ThermoFisher R79007) expressing human (transiently transfected) receptors of composition α5β2γ1, α2β2γ1, α1β2γ1.
as §1, §2
Assays were incubated to equilibrium for 1 hour at 4° C. and then, membranes were filtered onto unifilter (96-well white microplate with bonded GF/C filters preincubated 20-50 minutes in 0.3% Polyethylenimine) with a Filtermate 196 harvester (Packard BioScience) and washed 4 times with cold Potassium Phosphate 10 mM pH 7.4, KCl 100 mM binding buffer. After anhydrousing, filter-retained radioactivity was detected by liquid scintillation counting. Ki values were calculated using Excel-Fit (Microsoft) and are the means of two determinations.

Where [3] appears, read: Ki h-GABAA α2β2γ1, Table 1, [3H]RO7239181 displacement, membranes from HEK293F cells, mean of two determinations.
Setting [4] is: Ki h-GABAA α2β2γ1, Table 2, [3H]RO7239181 displacement.
The mark [5] stands for this setting: Table 1, Ki α1β3γ2 (nM)/Ki α2β2γ1 (nM).

Like-named read-outs stand apart in the source and are kept apart here.

In the case of `C[C@@H]1N=C(c2c(F)cccc2F)c2c(cnc(C(F)(F)F)c2Cl)-n2nc(C(=O)N3CCC3)nc21` [Example 6, azetidin-1-yl-[(7S)-11-chloro-9-(2,6-difluorophenyl)-7-methyl-12-(trifluoromethyl)-2,3,5,8,13-pentazatricyclo[8.4.0.02,6]tetradeca-1(10),3,5,8,11,13-hexaen-4-yl]methanone], the results for the Ki in test [1], in test [2] (setting [3]) and in test [2] (setting [4]) were 0.0116 µM, 0.0452 µM and 0.0452 µM, respectively. In addition, in test [2] (setting [5]), the “γ2/γ1 Selectivity Ratio” value worked out at 227. The LogSel in test [2] (Table 1) came out at 2.36.

As to `C[C@@H]1N=C(c2c(F)cccc2F)c2c(cnc(C(F)(F)F)c2Cl)-n2nc(NC(=O)C3COC3)nc21` [Example 12, N-[(7S)-11-chloro-9-(2,6-difluorophenyl)-7-methyl-12-(trifluoromethyl)-2,3,5,8,13-pentazatricyclo[8.4.0.02,6]tetradeca-1(10),3,5,8,11,13-hexaen-4-yl]oxetane-3-carboxamide], the Ki (as a rule, the equilibrium dissociation constant of an inhibitor or competing ligand from its target) amounted to 0.0052 µM in test [1], 0.0692 µM in test [2] (setting [3]) and 0.0692 µM in test [2] (setting [4]). In test [2] (setting [5]), the “γ2/γ1 Selectivity Ratio” value amounted to 178. Moreover, the LogSel in test [2] (Table 1) is 2.25.

Turning to `Cc1nnc2n1-c1cnc(C3CC3)c(Cl)c1C(c1c(F)cccc1F)=N[C@H]2C` [Example 2, (7S)-11-chloro-12-cyclopropyl-9-(2,6-difluorophenyl)-3,7-dimethyl-2,4,5,8,13-pentazatricyclo[8.4.0.02,6]tetradeca-1(10),3,5,8,11,13-hexaene], the Ki came to 0.0126 µM in test [1]; 0.143 µM in test [2]; 0.143 µM in test [2] (read-out: Ki h-GABAA α2β2γ1, Table 2, [3H]RO7239181 displacement). In test [2] (setting [5]), the “γ2/γ1 Selectivity Ratio” value worked out at 23. Also, the LogSel in test [2] (Table 1) is given as 1.36.

On to `C[C@@H]1N=C(c2c(F)cccc2F)c2c(cnc(C(F)(F)F)c2Cl)-n2nc(C(=O)NC[C@@H](C)O)nc21` [Example 16, (7S)-11-chloro-9-(2,6-difluorophenyl)-N-[(2R)-2-hydroxypropyl]-7-methyl-12-(trifluoromethyl)-2,3,5,8,13-pentazatricyclo[8.4.0.02,6]tetradeca-1(10),3,5,8,11,13-hexaene-4-carboxamide], for which the Ki in test [1] amounted to 0.0041 µM; in test [2] (setting [3]), 0.0398 µM; in test [2] (setting [4]), 0.0353 µM. Moreover, the “γ2/γ1 Selectivity Ratio” value in test [2] (setting [5]) is 238. The LogSel in test [2] (Table 1) is given as 2.38.

Regarding `Cc1nnc2n1-c1cnc(C(F)(F)F)c(Cl)c1C(c1c(F)cccc1Cl)=N[C@H]2C` [Example 17, (7S)-11-chloro-9-(2-chloro-6-fluoro-phenyl)-3,7-dimethyl-12-(trifluoromethyl)-2,4,5,8,13-pentazatricyclo[8.4.0.02,6]tetradeca-1(10),3,5,8,11,13-hexaene], the Ki was found to be 0.0038 µM in test [1], 0.0226 µM in test [2] (setting [3]) and 0.021 µM in test [2] (setting [4]). For the same compound, the “γ2/γ1 Selectivity Ratio” value in test [2] (setting [5]) is 215. The LogSel in test [2] (Table 1) is 2.33.

Take `C[C@@H]1N=C(c2c(F)cccc2F)c2c(cnc(C(F)(F)F)c2Cl)-n2nc(C(=O)NCC(C)(C)O)nc21` [Example 21, (7S)-11-chloro-9-(2,6-difluorophenyl)-N-(2-hydroxy-2-methyl-propyl)-7-methyl-12-(trifluoromethyl)-2,3,5,8,13-pentazatricyclo[8.4.0.02,6]tetradeca-1(10),3,5,8,11,13-hexaene-4-carboxamide]: the Ki turned out to be 0.0107 µM in test [1], 0.0723 µM in test [2] (setting [3]) and 0.0723 µM in test [2] (setting [4]). The “γ2/γ1 Selectivity Ratio” value in test [2] (setting [5]) came to 156. The LogSel in test [2] (Table 1) is reported as 2.19.

For `C[C@@H]1N=C(c2c(F)cccc2F)c2c(cnc(C(F)(F)F)c2Cl)-n2cc(C(=O)NCCO)nc21` [Example 19, (7S)-11-chloro-9-(2,6-difluorophenyl)-N-(2-hydroxyethyl)-7-methyl-12-(trifluoromethyl)-2,5,8,13-tetrazatricyclo[8.4.0.02,6]tetradeca-1(10),3,5,8,11,13-hexaene-4-carboxamide], the inhibitory constant (Ki) is 0.0038 µM in test [1], 0.0212 µM in test [2] (setting [3]) and 0.0232 µM in test [2] (setting [4]). The “γ2/γ1 Selectivity Ratio” value in test [2] (setting [5]) is recorded as 241. Also, the LogSel in test [2] (Table 1) is 2.38.

`C[C@@H]1N=C(c2c(F)cccc2F)c2c(cnc(C(F)(F)F)c2Cl)-n2nc(C(=O)N3CC(C)(O)C3)nc21` [Example 10, [(7S)-11-chloro-9-(2,6-difluorophenyl)-7-methyl-12-(trifluoromethyl)-2,3,5,8,13-pentazatricyclo[8.4.0.02,6]tetradeca-1(10),3,5,8,11,13-hexaen-4-yl]-(3-hydroxy-3-methyl-azetidin-1-yl)methanone]: the Ki in test [1] was 0.003 µM; in test [2] (setting [3]), 0.0143 µM; in test [2] (setting [4]), 0.0143 µM; in test [2] (Ki h-GABAA α2β2γ1, Table 3, reference compounds comparison) it was 0.0143 µM. The “γ2/γ1 Selectivity Ratio” value in test [2] (setting [5]) came out at 321; in test [2] (Table 3, Ki α1β3γ2/Ki α2β2γ1) it was 321. Also, the LogSel was 2.51 in test [2] (Table 1) and 2.5 in test [2] (Table 3).

Turning to `C[C@@H]1N=C(c2c(F)cccc2F)c2c(cnc(C(F)(F)F)c2Cl)-n2nc(C(=O)NCCO)nc21` [Example 15, (7S)-11-chloro-9-(2,6-difluorophenyl)-N-(2-hydroxyethyl)-7-methyl-12-(trifluoromethyl)-2,3,5,8,13-pentazatricyclo[8.4.0.02,6]tetradeca-1(10),3,5,8,11,13-hexaene-4-carboxamide], the Ki in test [1] turned out to be 0.0026 µM; in test [2] (setting [3]), 0.0345 µM; in test [2] (setting [4]), 0.0365 µM. Further, in test [2] (setting [5]), the “γ2/γ1 Selectivity Ratio” value was 275. Further, in test [2] (Table 1), the LogSel was determined as 2.44.

`Cc1nc2n(n1)-c1cnc(C(F)(F)F)c(Cl)c1C(c1c(F)cccc1F)=N[C@H]2C` [Example 5]: the Ki in test [1] is 0.0017 µM; in test [2] (Table 1, [3H]RO7239181 displacement, membranes from HEK293F cells, mean of two determinations, read-out: Ki h-GABAA α2β2γ1), 0.04 µM; in test [2] (Table 2, [3H]RO7239181 displacement, read-out: Ki h-GABAA α2β2γ1), 0.04 µM. The “γ2/γ1 Selectivity Ratio” value in test [2] (setting [5]) was 118. In test [2] (Table 1), the LogSel was determined as 2.07.
